Consider 1 molecule from patent US20160024175A1, “CHEMOTHERAPY-RESISTANT IMMUNE CELLS” (priority 2013, published 2016).

One data set has as its system U373.eGFP.FFLuc cells. The experiment in a line: Coculture of U373.eGFP.FFLuc tumor cells with T cells with or without TMZ, tumor killing by fluorescence microscopy. The class given is cell-based. Particulars: TMZ with non-transduced (NT) T cells. On the procedure: Tumor killing was evaluated by fluorescence microscopy.
Both TMZ and HER2.CAR T cells have anti-GBM activity on their own; however, it is unknown whether combining the agents provides additional benefit.

A further data set relates to HER2.CAR T cells. The experiment in a line: Expansion of HER2.CAR T cells with IL-2 under repeated TMZ treatment (cell counts every three days). The class given is cell-based. Particulars: 100 μM TMZ, retreated every three days, 100 U/ml IL-2; n=4 donors; p<0.05.
The test system of data set [1] is glioblastoma multiforme (GBM). Particulars: cited from earlier work; for median overall survival: GBM patients receiving TMZ.

Read-outs that look alike come from different tables or passages of the source.

Description for HER2.CAR T cells: 1×10^6 HER2.CAR T cells were plated on day 1 with 100 U/ml of IL-2 and treated with 100 μM TMZ. Every three days, the T cells were counted, given fresh IL-2, and retreated with TMZ.
To do this, 1×10^6 HER2.CAR T cells were plated with 100 U/ml of IL-2 and treated with 100 μM TMZ (day 1). Every three days, the T cells were counted, given fresh IL-2, and re-treated with TMZ.

`Cn1nnc2c(C(N)=O)ncn2c1=O` [TMZ, 3-methyl-4-oxo-3H,4H-imidazo[4,3-d][1,2,3,5]tetrazine-8-carboxamide]: the “antitumor activity / tumor killing” value in the data set with U373.eGFP.FFLuc cells is on record as “limited antitumor activity”. The “effect of TMZ on T-cell expansion” value with HER2.CAR T cells is “effectively prevented T-cell expansion”. Further, the median overall survival is 21.7 months in data set [1] (methylated MGMT promoters) and 12.7 months in data set [1] (unmethylated MGMT promoters). For the same molecule, the overall survival result in data set [1] (phase III trial, TMZ with radiation therapy vs. radiotherapy alone, GBM patients) is recorded as “significantly improve the overall survival”.
